Measured values as given in patent US7485750B2, “Hydroxamic acid derivatives and the preparation method thereof” (Amorepacific Corporation, priority 2005, dated 2009).

Columns and labels:
[1] = tested on: Human keratinocyte (HaCaT) cell line; assay: Antioxidative effect: lipid peroxidation assay (MDA, 4-HNE) in t-BHP-treated HaCaT cells; assay type: cell-based; design: unit not given here; conditions: control without treatment = 100
Protocol: This example illustrates the antioxidative effect of the hydroxamic acid derivatives obtained in Examples 1 to 24, in comparison with tocoperol and EGCG (EpiGalloCatechin Gallate). Human keratinocyte (HaCaT) cell line was divided into 1.0×10^6 per 60 mm dish, and was cultured for 1 day at 37° C., 5% CO2, using DMEM (FBS 10%) medium containing penicillin/streptomycin, and then was treated with 10^−4 mol % of hydroxamic acid derivatives. The same treatment was performed with tocoperol and EGCG, as positive controls, of the same concentration. The next day, HaCaT cells were treated with 4 mM of BHP (t-butyl hydroperoixe), and were cultured for 4 hours at 37° C., 5% CO2, and the cells were obtained. Lysis of the cells was performed on the cells by way of repeating the freeze/thawing process. The following experiment was performed according to the method presented in the assay kit.
Cabiochem Lipid peroxidation assay kit (Cat. No. 437634) was used as reagent in the present invention, and lipid peroxidation was measured using the principle that peroxidation products of ester which relate to long chain unsaturated fatty acid, such as malondialdehyde (MDA), and 4-hydroxyalkenal, i.e., 4-hydroxy-2(E)-nonenal (4-HNE), react with the reagent to form a stable compound at 586 nm.

Human fibroblasts = assay: Collagen biosynthesis: procollagen type (I) ELISA in human fibroblasts; assay type: cell-based; conditions: 10^-4 M in serum-free medium, 24 hours, relative value, control group = 100
Protocol: Human fibroblasts were seeded into 24-well plates at 1×10^5 cells per well and then cultured to 90% of growth. The fibroblastes were then cultured in serum-free DMEM for 24 hours and treated with 10^−4 M of the hydroxamic acid derivatives of Examples 1-24, tocoperol and EGCG, in serum-free medium, and then incubated in a CO2 incubator for 24 hours.
For each supernatant, procollagen production was measured with procollagen type (I) ELISA kit. The results are shown in Table 2, in which collagen biosynthesis was evaluated as a relative value, in consideration that the value of the control group with no material treated is 100.

mice = assay: Contraction of skin pores in mice after topical application; assay type: in vivo; conditions: 0.5 ml of 1% solution in 1,3-butylene glycol:ethanol=7:3 applied for 1 day, back biopsied 24 hours later, control group 65
Protocol: The compounds of Examples 1-24 were dissolved in solvent (1,3-butylene glycol:ethanol=7:3) to give 1% solution of test samples. To forty-six (46) mice, 0.5 ml of the test sample solution was applied for 1 day, 24 hours later, their back part was biopsied. The epidermis was separated, then soaked in 0.5% acetic acid, then fixed in 10% formalin, and cut vertically by […]. After dying with hematoxylin and eosin, the size of skin pore was measured using Mechanical eyepiece micrometer.

[2] = HaCaT cells pretreated with 10^-4 mol % test material, next day 4 mM t-BHP for 4 hours, lipid peroxidation at 586 nm

Row | Compound | MDA, HNE [1, 2] | Collagen biosynthesis (%) (Human fibroblasts) | Size of skin pore (mice) [µm] | MDA, HNE ([1]; HaCaT cells treated with 4 mM t-BHP alone for 4 hours)
1 | CCCOc1ccc(C(=O)Nc2ccc(CC(=O)N(C)O)cc2)cc1OCCC [Example 22] | 188 | 122 | 52 | –
2 | CN(O)C(=O)Cc1ccc(NC(=O)c2ccc(OC(C)(C)C)c(OC(C)(C)C)c2)cc1 [Example 24] | 197 | 131 | 50 | –
3 | CCOc1ccc(C(=O)Nc2ccc(C(=O)N(C)O)cc2)cc1OCC [Example 8, [4-((3,4-diethoxyphenyl)carbonylamino)phenyl]-N-hydroxy-N-methyl carboxyamide] | 190 | 112 | 50 | –
4 | CC(C)Oc1ccc(C(=O)Nc2ccc(C(=O)N(C)O)cc2)cc1OC(C)C [Example 9, [4-((3,4-diisopropoxyphenyl)carbonylamino)phenyl]-N-hydroxy-N-methyl carboxyamide] | 187 | 123 | 51 | –
5 | CC(C)(C)Oc1ccc(C(=O)Nc2ccc(CC(=O)NO)cc2)cc1OC(C)(C)C [Example 18, N-(4-((hydroxycarbamoyl)methyl)phenyl)-3,4-di-tert-butoxy benzamide] | 232 | 122 | 57 | –
6 | CCOc1ccc(C(=O)Nc2ccc(C(=O)NO)cc2)cc1OCC [Example 2, N-[4-(N-hydroxycarbamoyl)phenyl][3,4-diethoxyphenyl]carboxyamide] | 200 | 131 | 50 | –
7 | CCCCOc1ccc(C(=O)Nc2ccc(C(=O)N(C)O)cc2)cc1OCCCC [Example 11, [4-((3,4-dibutoxyphenyl)carbonylamino)phenyl]-N-hydroxy-N-methylcarboxyamide] | 198 | 121 | 56 | –
8 | CCCOc1ccc(C(=O)Nc2ccc(C(=O)N(C)O)cc2)cc1OCCC [Example 10, [4-((3,4-dipropoxyphenyl)carbonylamino)phenyl]-N-hydroxy-N-methyl carboxyamide] | 140 | 126 | 52 | –
9 | CCCOc1ccc(C(=O)Nc2ccc(C(=O)NO)cc2)cc1OCCC [Example 4, N-[4-(N-hydroxycarbamoyl)phenyl][3,4-dipropoxyphenyl]carboxyamide] | 189 | 111 | 52 | –
10 | COc1ccc(C(=O)Nc2ccc(C(=O)N(C)O)cc2)cc1OC [Example 7, [4-((3,4-dimethoxyphenyl)carbonylamino)phenyl]-N-hydroxy-N-methyl carboxyamide] | 220 | 111 | 55 | –
11 | CC(C)Oc1ccc(C(=O)Nc2ccc(C(=O)NO)cc2)cc1OC(C)C [Example 3, N-[4-(N-hydroxycarbamoyl)phenyl][3,4-diisopropoxyphenyl]carboxyamide] | 211 | 122 | 54 | –
12 | CC(C)Oc1ccc(C(=O)Nc2ccc(CC(=O)N(C)O)cc2)cc1OC(C)C [Example 21] | 190 | 121 | 55 | –
13 | CCCCOc1ccc(C(=O)Nc2ccc(CC(=O)N(C)O)cc2)cc1OCCCC [Example 23] | 188 | 123 | 51 | –
14 | COc1ccc(C(=O)Nc2ccc(C(=O)NO)cc2)cc1OC [Example 1, N-[4-(N-hydroxycarbamoyl)phenyl][3,4-dimethoxyphenyl]carboxyamide] | 190 | 123 | 56 | –
15 | O=C(O[C@@H]1Cc2c(O)cc(O)cc2O[C@@H]1c1cc(O)c(O)c(O)c1)c1cc(O)c(O)c(O)c1 [EGCG, EpiGalloCatechin Gallate, reference compound] | 230 | 120 | 60 | –
16 | CN(O)C(=O)c1ccc(NC(=O)c2ccc(OC(C)(C)C)c(OC(C)(C)C)c2)cc1 [Example 12, [4-((3,4-di-tert-butoxyphenyl)carbonylamino)phenyl]-N-hydroxy-N-methyl carboxyamide] | 176 | 123 | 54 | –
17 | CC(C)(C)OO [t-BHP, t-butyl hydroperoixe, reference compound] | – | – | – | 320
18 | CC(C)(C)Oc1ccc(C(=O)Nc2ccc(C(=O)NO)cc2)cc1OC(C)(C)C [Example 6, N-[4-(N-hydroxycarbamoyl)phenyl][3,4-di-tert-butoxyphenyl]carboxyamide] | 231 | 135 | 54 | –
19 | Cc1c(C)c2c(c(C)c1O)CC[C@@](C)(CCC[C@H](C)CCC[C@H](C)CCCC(C)C)O2 [Tocoperol, tocoperol, reference compound] | 250 | 113 | 64 | –
20 | COc1ccc(C(=O)Nc2ccc(CC(=O)N(C)O)cc2)cc1OC [Example 19] | 212 | 142 | 54 | –
21 | CC(C)Oc1ccc(C(=O)Nc2ccc(CC(=O)NO)cc2)cc1OC(C)C [Example 15, N-(4-((hydroxycarbamoyl)methyl)phenyl)-3,4-diisopropoxy benzamide] | 213 | 134 | 51 | –
22 | COc1ccc(C(=O)Nc2ccc(CC(=O)NO)cc2)cc1OC [Example 13, N-(4-((hydroxycarbamoyl)methyl)phenyl)-3,4-dimethoxy benzamide] | 150 | 111 | 55 | –
23 | CCCCOc1ccc(C(=O)Nc2ccc(CC(=O)NO)cc2)cc1OCCCC [Example 17, N-(4-((hydroxycarbamoyl)methyl)phenyl)-3,4-dibutoxy benzamide] | 200 | 123 | 56 | –
24 | CCOc1ccc(C(=O)Nc2ccc(CC(=O)N(C)O)cc2)cc1OCC [Example 20] | 196 | 123 | 51 | –
25 | CCCOc1ccc(C(=O)Nc2ccc(CC(=O)NO)cc2)cc1OCCC [Example 16, N-(4-((hydroxycarbamoyl)methyl)phenyl)-3,4-dipropoxy benzamide] | 199 | 131 | 52 | –
26 | CCCCOc1ccc(C(=O)Nc2ccc(C(=O)NO)cc2)cc1OCCCC [Example 5, N-[4-(N-hydroxycarbamoyl)phenyl][3,4-dibutoxyphenyl]carboxyamide] | 211 | 121 | 53 | –
27 | CCOc1ccc(C(=O)Nc2ccc(CC(=O)NO)cc2)cc1OCC [Example 14, N-(4-((hydroxycarbamyl)methyl)phenyl)-3,4-diethoxy benzamide] | 220 | 121 | 50 | –
